These are literature values, as cited in PMC3066409 (Diabetic Medicine, 2010).

Structures can show the parent of a compound that is named as a salt.

The conditions of this series: prescribing information.

For the compound `CCN(CC)CCNC(=O)c1cc(Cl)c(N)cc1OC` [metoclopramide], the Drowsiness result is given as “reported adverse effect”. Take `Cc1nccn1CC1CCc2c(c3ccccc3n2C)C1=O` (centres unmarked) [ondansetron, ondansetron hydrochloride]: the Drowsiness entry is recorded as “reported adverse effect”.
